Data from patent US11767310B2, “Nicotinamide RIPK1 inhibitors” (AbbVie Inc., priority 2021, dated 2023).

Key:
[1] = target: RIPK1 (Homo sapiens (Human), UniProt Q13546); assay: RIPK1 Binding Assay; conditions: displacement of fluorescent probe, TR-FRET
Procedure: Compounds were tested for their ability to displace a fluorescent probe from recombinant human RIPK1.
Recombinant human RIPK1 (1-375) was prepared as described in Harris et al., ACS Med. Chem. Letters (2013) 4:1238-1243 (Supplementary Information), with the following exceptions: (i) instead of using the gene sequence from NM_003804.3, the gene was synthesized with codon optimization for BEV expression system, and (ii) the gene was cloned into the vector pFastBac1, not pDEST8.
A fluorescent probe containing an Oregon green fluorophore was synthesized from a compound known to bind to RIPK1.
The assay was performed in a buffer containing 50 mM N-2-Hydroxyethylpiperazine-N′-2-ethanesulfonic acid (HEPES) (pH 7.5), 10 mM MgCl2, 1 mM ethylene diamine tetraacetic acid (EDTA), and 0.01% BRIJ-35 (Polyoxyethylene (23) lauryl ether). Test compounds were solvated in dimethyl sulfoxide (DMSO) at final concentrations 4-fold serially diluted from 100 to 0.000095 uM in technical duplicates into an empty 384 well plate. Recombinant RIPK1 (final concentration of 2.5 nM) was added to the wells and incubated with test compound for 1 hour at room temperature. A solution containing the fluorescent probe (final concentration 5 nM) and an LanthaScreen Tb-anti-GST antibody (Thermofisher Scientific; final concentration of 5 nM) was then added to each well, with the Tb-anti-GST antibody binding to the GST portion of the recombinant RIPK1 and providing the corresponding FRET pair to the fluorescent probe. The plate was incubated for 1 hour at room temperature and read on an Envision plate reader using a time resolved FRET protocol. Data was normalized and analyzed using Studies from Dotmatics.

[2] = system: U937 cells; assay: U937 TNF/zVAD Cytotoxicity Cell Assay; type: cell-based; conditions: Homo sapiens, U-937; TNFα 10 ng/mL + Z-VAD FMK 20 μM, 16-20 hours; read-out: U937 TNF/zVAD Induced Cytotoxicity IC50
Procedure: Compounds were tested for their ability to prevent TNF induced necroptosis in U937 cells. Treatment with TNF and the caspase inhibitor zVAD-FMK results in the activation and phosphorylation of RIPK1 and subsequent phosphorylation of RIPK3 and MLKL (Mixed Lineage Kinase Domain Like Pseudokinase), leading to induction of necroptotic cell death that is measured as a reduction in cell viability. Similar U937 assay protocols have been previously described; see, e.g., Harris et al., ACS Med. Chem. Letters (2013) 4:1238-1243 and Supplementary Information.
Test compounds were solvated in dimethyl sulfoxide (DMSO) and 3-fold serially diluted from 10 uM to 0.0005 uM with technical duplicates into an empty 384 well plate. U937 cells were resuspended at a concentration of 500,000 cells/mL in fresh RPMI (Roswell Park Memorial Institute) 1640 growth medium containing 10% heat inactivated fetal bovine serum (FB1S) and seeded into a 384 well plate containing compounds and incubated for 1 hour at 37° C. Following incubation, the cells were challenged with TNFα (final concentration of 10 ng/mL) and Z-VAD FMK (N-Benzyloxycarbonyl-Val-Ala-Asp(O-Me) fluoromethyl ketone; final concentration of 20 μM) for 16-20 hours at 37° C. Following the incubation with TNFα/Z-VAD, cells were lysed with Cell Titer-Glo and incubated for 5-10 minutes. The plate was then read on an Envision plate reader. Data was normalized and analyzed with Studies from Dotmatics.

RIPK1, sequence (Q13546 1-375): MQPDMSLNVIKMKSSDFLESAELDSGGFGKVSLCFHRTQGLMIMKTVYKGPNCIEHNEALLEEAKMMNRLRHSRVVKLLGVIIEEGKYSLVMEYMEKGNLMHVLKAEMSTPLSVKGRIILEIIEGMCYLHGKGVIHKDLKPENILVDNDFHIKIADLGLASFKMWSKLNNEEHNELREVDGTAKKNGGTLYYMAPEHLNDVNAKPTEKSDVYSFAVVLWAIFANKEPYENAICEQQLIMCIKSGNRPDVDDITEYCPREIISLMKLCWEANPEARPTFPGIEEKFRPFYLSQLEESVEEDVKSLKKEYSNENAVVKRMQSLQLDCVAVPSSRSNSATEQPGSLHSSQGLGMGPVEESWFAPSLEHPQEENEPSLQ

Row | Structure (SMILES) | IC50 [1] | IC50 [2]
1 | CN(CC(O)Cc1ccccc1)C(=O)c1cnc(C(F)F)c(C#Cc2cnn(C)c2)c1 (stereo in doubt) [Example 9, (S)-6-(difluoromethyl)-N-(2-hydroxy-3-phenylpropyl)-N-methyl-5-((1-methyl-1H-pyrazol-4-yl)ethynyl)nicotinamide] | 0.018 µM | 0.029 µM
2 | CN(C[C@@H](O)Cc1ccccc1)C(=O)c1cncc(C#Cc2cnn(C)n2)c1 [Example 3, (S)-N-(2-hydroxy-3-phenylpropyl)-N-methyl-5-((2-methyl-2H-1,2,3-triazol-4-yl)ethynyl)nicotinamide] | 0.036 µM | 0.196 µM
3 | CN(C[C@@H](O)Cc1ccccc1)C(=O)c1cncc(C#Cc2cnn(C(F)(F)F)c2)c1 [Example 4, (S)-N-(2-hydroxy-3-phenylpropyl)-N-methyl-5-((1-(trifluoromethyl)-1H-pyrazol-4-yl)ethynyl)nicotinamide] | 0.03 µM | 0.199 µM
4 | CN(C[C@@H](O)Cc1ccccc1)C(=O)c1cncc(C#Cc2cnn(C3CC3)c2)c1 [Example 5, (S)-5-((1-cyclopropyl-1H-pyrazol-4-yl)ethynyl)-N-(2-hydroxy-3-phenylpropyl)-N-methylnicotinamide] | 0.014 µM | 0.049 µM
5 | CN(C[C@@H](O)Cc1ccccc1)C(=O)c1cncc(C#Cc2cnn(C3CCC3)c2)c1 [Example 6, (S)-5-((1-cyclobutyl-1H-pyrazol-4-yl)ethynyl)-N-(2-hydroxy-3-phenylpropyl)-N-methylnicotinamide] | 0.003 µM | 0.006 µM
6 | CN(C[C@@H](O)[C@@H](F)c1ccccc1)C(=O)c1cncc(C#Cc2cnn(C)c2)c1 [Example 7, N-((2R,3S)-3-fluoro-2-hydroxy-3-phenylpropyl)-N-methyl-5-((1-methyl-1H-pyrazol-4-yl)ethynyl)nicotinamide] | 0.007 µM | 0.009 µM
7 | CN(C[C@@H](O)Cc1ccccc1)C(=O)c1cncc(C#Cc2cnn3c2COCC3)c1 [Example 8, (S)-5-((6,7-Dihydro-4H-pyrazolo[5,1-c][1,4]oxazin-3-yl)ethynyl)-N-(2-hydroxy-3-phenylpropyl)-N-methylnicotinamide] | 0.006 µM | 0.013 µM
8 | CN(C[C@@H](O)Cc1ccccc1)C(=O)c1cncc(C#Cc2cnn(C3COC3)n2)c1 [Example 10, (S)-N-(2-hydroxy-3-phenylpropyl)-N-methyl-5-((2-(oxetan-3-yl)-2H-1,2,3-triazol-4-yl)ethynyl)nicotinamide] | 0.043 µM | 0.38 µM
9 | CN(C[C@@H](O)Cc1ccccc1)C(=O)c1cncc(C#Cc2cnn(C)c2C2CC2)c1 [Example 11, (S)-5-((5-cyclopropyl-1-methyl-1H-pyrazol-4-yl)ethynyl)-N-(2-hydroxy-3-phenylpropyl)-N-methylnicotinamide] | 0.002 µM | 0.005 µM
10 | CN(C[C@@H](O)Cc1cccc(F)c1)C(=O)c1cncc(C#Cc2cnn(C)c2)c1 [Example 12, (S)-N-(3-(3-fluorophenyl)-2-hydroxypropyl)-N-methyl-5-((1-methyl-1H-pyrazol-4-yl)ethynyl)nicotinamide] | 0.013 µM | 0.02 µM
11 | COc1ncc(C(=O)N(C)C[C@@H](O)Cc2ccccc2)cc1C#Cc1cnn(C)c1 [Example 13, (S)-N-(2-hydroxy-3-phenylpropyl)-6-methoxy-N-methyl-5-((1-methyl-1H-pyrazol-4-yl)ethynyl)nicotinamide] | 0.095 µM | 0.382 µM
12 | Cc1ncc(C#Cc2cncc(C(=O)N(C)C[C@@H](O)Cc3ccccc3)c2)s1 [Example 15, (S)-N-(2-hydroxy-3-phenylpropyl)-N-methyl-5-((2-methylthiazol-5-yl)ethynyl) nicotinamide] | 25 µM | 
13 | Cc1ncc(C#Cc2cncc(C(=O)N(C)C[C@@H](O)Cc3ccccc3)c2)o1 [Example 17, (S)-N-(2-hydroxy-3-phenylpropyl)-N-methyl-5-((2-methyloxazol-5-yl)ethynyl)nicotinamide] | 0.032 µM | 0.146 µM
14 | Cc1c(C#Cc2cncc(C(=O)N(C)C[C@@H](O)Cc3ccccc3)c2)cnn1C(F)F [Example 26, (S)-5-((1-(difluoromethyl)-5-methyl-1H-pyrazol-4-yl)ethynyl)-N-(2-hydroxy-3-phenylpropyl)-N-methylnicotinamide] | 0.0018 µM | 0.003 µM
